Values after ≈ are worked out from the molar mass of the structure shown. Read-outs that look alike come from different tables or passages of the source.
What was measured:
[1] = test system: Escherichia coli LA290 R56; assay: Minimum inhibitory concentration, serial dilution method on nutrient agar; assay type: cell-based; settings: LA290R56, 18 h, read-out: Minimum Inhibitory Concentrations
[2] = test system: Escherichia coli K-12 ML 1410; assay: as above; assay type: cell-based; settings: read-out: Minimum Inhibitory Concentrations
[3] = test system: Escherichia coli LA290 R64; assay: as above; assay type: cell-based; settings: LA290R64, 18 h, read-out: Minimum Inhibitory Concentrations
[4] = test system: Bacillus subtilis NRRL B-558; assay: as above; assay type: cell-based; settings: NRRLB558, 37° C., 18 hours, read-out: Minimum Inhibitory Concentrations
[5] = test system: Corynebacterium bovis 1810; assay: as above; assay type: cell-based; settings: read-out: Minimum Inhibitory Concentrations
[6] = test system: Klebsiella pneumoniae PCT 602; assay: as above; assay type: cell-based; settings: read-out: Minimum Inhibitory Concentrations
[7] = test system: Escherichia coli K-12 ML 1629; assay: as above; assay type: cell-based; settings: read-out: Minimum Inhibitory Concentrations
[8] = test system: Escherichia coli JR66/W677; assay: as above; assay type: cell-based; settings: Escherichia coli, JR66/W677, 18 h, read-out: Minimum Inhibitory Concentrations
[9] = test system: Escherichia coli K-12 ML 1410 R81; assay: as above; assay type: cell-based; settings: 18 h, read-out: Minimum Inhibitory Concentrations
Escherichia coli K-12 R5 = assay: as above; assay type: cell-based; settings: K12R5, 18 h, read-out: Minimum Inhibitory Concentrations
[10] = test system: Pseudomonas aeruginosa 99; assay: as above; assay type: cell-based; settings: 37° C., 18 hours, read-out: Minimum Inhibitory Concentrations
Salmonella typhosa T-63 = assay: as above; assay type: cell-based; settings: Salmonella enterica, 18 h, read-out: Minimum Inhibitory Concentrations
[11] = test system: Mycobacterium smegmatis ATCC 607; assay: as above; assay type: cell-based; settings: Mycolicibacterium smegmatis, ATCC607, 37° C., 18 hours, read-out: Minimum Inhibitory Concentrations
[12] = test system: Shigella dysenteriae JS 11910; assay: as above; assay type: cell-based; settings: JS11910, 18 h, read-out: Minimum Inhibitory Concentrations
Staphylococcus aureus = assay: as above; assay type: cell-based; settings: 37° C., 18 hours, read-out: Minimum Inhibitory Concentrations
[13] = test system: Staphylococcus aureus Terajima; assay: as above; assay type: cell-based; settings: 37° C., 18 hours, read-out: Minimum Inhibitory Concentrations
[14] = test system: Escherichia coli LA290 R55; assay: as above; assay type: cell-based; settings: LA290R55, 18 h, read-out: Minimum Inhibitory Concentrations
Sarcina lutea PCI 1001 = assay: as above; assay type: cell-based; settings: Micrococcus luteus, PCI1001, 18 h, read-out: Minimum Inhibitory Concentrations
[15] = test system: Pseudomonas aeruginosa TI-13; assay: as above; assay type: cell-based; settings: read-out: Minimum Inhibitory Concentrations
Proteus vulgaris OX 19 = assay: as above; assay type: cell-based; settings: read-out: Minimum Inhibitory Concentrations
[16] = test system: Escherichia coli K-12 ML 1630; assay: as above; assay type: cell-based; settings: K12ML1630, 37° C., 18 hours, read-out: Minimum Inhibitory Concentrations
Experimental: (§1) The minimum inhibitory concentrations (mcg./ml.) of 1N-(DL-isoseryl)-6'N-methyl-3',4'-dideoxykanamycin B (abbreviated as DL-IS-MDKB); 1N-(L-isoseryl)-6'N-methyl-3',4'-dideoxykanamycin B (abbreviated as L-IS-MDKB); 1N-(L-4-amino-[…])-6'N-methyl-3',4'-dideoxykanamycin B (abbreviated as AHB-MDKB); and 1N-(L-5-amino-2-hydroxyvaleryl)-6'N-methyl-3',4'-dideoxykanamycin B (abbreviated as AHV-MDBK) against various organisms were determined according to serial dilution method using nutrient agar medium at 37° C., the readings being made after 18 hours incubation. For the comparison purpose, the minimum inhibitory concentrations (mcg./ml.) of 1 N-(L-4-amino-2-hydroxybutyryl)-kanamycin A (abbreviated as AHB-KMA) and 1N-([…])-kanamycin B (abbreviated as AHB-KMB) which are known from U.S. Pat. No. 3,781,268 were also determined by the same manner as stated above.

[17] = test system: Shigella flexneri 4b JS 11811; assay: as above; assay type: cell-based; settings: 4BJS11811, 37° C., 18 hours, read-out: Minimum Inhibitory Concentrations
Experimental: as §1

Shigella sonnei JS 11746 = assay: as above; assay type: cell-based; settings: JS11746, 37° C., 18 hours, read-out: Minimum Inhibitory Concentrations
Experimental: as §1

[18] = test system: Klebsiella pneumoniae 22 No. 3038; assay: as above; assay type: cell-based; settings: 37° C., 18 hours, read-out: Minimum Inhibitory Concentrations
Experimental: as §1

[19] = test system: Pseudomonas aeruginosa A3; assay: as above; assay type: cell-based; settings: 37° C., 18 hours, read-out: Minimum Inhibitory Concentrations
Experimental: as §1

Bacillus anthracis = assay: microbe, parasite or virus in culture; assay type: cell-based; settings: 18 h, read-out: Minimum Inhibitory Concentrations
[20] = test system: Staphylococcus aureus FDA 209P; assay: Minimum inhibitory concentration, serial dilution method on nutrient agar; assay type: cell-based; settings: FDA209P, 37° C., 18 hours, read-out: Minimum Inhibitory Concentrations
[21] = test system: Pseudomonas aeruginosa No. 12; assay: as above; assay type: cell-based; settings: Pseudomonas aeruginosa, NO.12, 18 h, read-out: Minimum Inhibitory Concentrations
[22] = test system: Bacillus subtilis PCI 219; assay: as above; assay type: cell-based; settings: PCI219, 37° C., 18 hours, read-out: Minimum Inhibitory Concentrations
[23] = test system: kanamycin-resistant bacteria; settings: prior art statement; cited from earlier work
Escherichia coli W677 = assay: Minimum inhibitory concentration, serial dilution method on nutrient agar; assay type: cell-based; settings: read-out: Minimum Inhibitory Concentrations
[24] = test system: Salmonella enteritidis 1891; assay: as above; assay type: cell-based; settings: Salmonella enterica, read-out: Minimum Inhibitory Concentrations
Escherichia coli K-12 = assay: as above; assay type: cell-based; settings: read-out: Minimum Inhibitory Concentrations
Escherichia coli NIHJ = assay: as above; assay type: cell-based; settings: read-out: Minimum Inhibitory Concentrations
[25] = test system: Bacillus cereus ATCC 10702; assay: as above; assay type: cell-based; settings: read-out: Minimum Inhibitory Concentrations
[26] = test system: Pseudomonas aeruginosa GN315; assay: as above; assay type: cell-based; settings: Pseudomonas aeruginosa GN315; 37° C., 18 hours; read-out: Minimum Inhibitory Concentrations

NCC[C@H](O)C(=O)N[C@@H]1C[C@H](N)[C@@H](O[C@H]2O[C@H](CN)[C@@H](O)[C@H](O)[C@H]2O)[C@H](O)[C@H]1O[C@H]1O[C@H](CO)[C@@H](O)[C@H](N)[C@H]1O [AHB-KMA, 1 N-(L-4-amino-2-hydroxybutyryl)-kanamycin A, reference compound]
MIC [1]: 0.39 µg/mL (≈ 0.666 µM) | MIC ([2]; K12ML1410, Escherichia coli K-12 ML 1410, 37° C., 18 hours): 0.78 µg/mL (≈ 1.33 µM) | MIC [3]: 0.39 µg/mL (≈ 0.666 µM) | MIC [4]: < 0.2 µg/mL | MIC ([5]; Corynebacterium bovis 1810, 37° C., 18 hours): 0.78 µg/mL (≈ 1.33 µM) | MIC ([6]; PCT602, Klebsiella pneumoniae PCT 602, 37° C., 18 hours): 0.39 µg/mL (≈ 0.666 µM) | MIC ([7]; K12ML1629, Escherichia coli K-12 ML 1629, 37° C., 18 hours): 0.78 µg/mL (≈ 1.33 µM) | MIC [8]: 1.56 µg/mL (≈ 2.66 µM) | MIC [9]: 1.56 µg/mL (≈ 2.66 µM) | MIC (Escherichia coli K-12 R5): 0.39 µg/mL (≈ 0.666 µM) | MIC [10]: 6.25 µg/mL (≈ 10.7 µM) | MIC (Salmonella typhosa T-63): 0.39 µg/mL (≈ 0.666 µM) | MIC [11]: < 0.2 µg/mL | MIC [12]: 3.13 µg/mL (≈ 5.34 µM) | MIC (Staphylococcus aureus): < 0.2 µg/mL | MIC [13]: < 0.2 µg/mL | MIC [14]: 0.78 µg/mL (≈ 1.33 µM) | MIC (Sarcina lutea PCI 1001): 3.13 µg/mL (≈ 5.34 µM) | MIC ([15]; Pseudomonas aeruginosa, TI13, 18 h): 3.13 µg/mL (≈ 5.34 µM) | MIC (Proteus vulgaris OX 19; OX19, Proteus vulgaris OX 19, 37° C., 18 hours): 0.78 µg/mL (≈ 1.33 µM) | MIC [16]: 0.78 µg/mL (≈ 1.33 µM) | MIC [17]: 3.13 µg/mL (≈ 5.34 µM) | MIC (Shigella sonnei JS 11746): 1.56 µg/mL (≈ 2.66 µM) | MIC [18]: 1.56 µg/mL (≈ 2.66 µM) | MIC [19]: 3.13 µg/mL (≈ 5.34 µM) | MIC (Bacillus anthracis): < 0.2 µg/mL | MIC [20]: 0.39 µg/mL (≈ 0.666 µM) | MIC [21]: 3.13 µg/mL (≈ 5.34 µM) | MIC [22]: < 0.2 µg/mL | activity against kanamycin-resistant bacteria [23]: active against a large number of kanamycin-resistant bacteria | MIC (Escherichia coli W677; Escherichia coli W677, 37° C., 18 hours): < 0.2 µg/mL | MIC ([24]; Salmonella enteritidis 1891, 37° C., 18 hours): 0.78 µg/mL (≈ 1.33 µM) | MIC (Escherichia coli K-12; K12, Escherichia coli K-12, 37° C., 18 hours): 0.78 µg/mL (≈ 1.33 µM) | MIC (Escherichia coli NIHJ; Escherichia coli NIHJ, 37° C., 18 hours): 0.78 µg/mL (≈ 1.33 µM) | MIC ([25]; ATCC10702, Bacillus cereus ATCC 10702, 37° C., 18 hours): 0.78 µg/mL (≈ 1.33 µM) | MIC [26]: 100 µg/mL (≈ 171 µM)

CNC[C@@H]1CC[C@@H](N)[C@@H](O[C@H]2[C@H](O)[C@@H](O[C@H]3O[C@H](CO)[C@@H](O)[C@H](N)[C@H]3O)[C@H](NC(=O)C(O)CN)C[C@@H]2N)O1 (mixture of isomers) [DL-IS-MDKB, 1N-(DL-isoseryl)-6'N-methyl-3',4'-dideoxykanamycin B]
MIC [1]: 0.78 µg/mL | MIC ([2]; Escherichia coli, K12ML1410, 18 h): 3.13 µg/mL | MIC [3]: 0.78 µg/mL | MIC [4]: < 0.2 µg/mL | MIC ([5]; Corynebacterium bovis, 1810, 18 h): 3.13 µg/mL | MIC ([6]; Klebsiella pneumoniae, PCT602, 18 h): 1.56 µg/mL | MIC ([7]; Escherichia coli, K12ML1629, 18 h): 1.56 µg/mL | MIC [8]: 3.13 µg/mL | MIC [9]: 3.13 µg/mL | MIC (Escherichia coli K-12 R5): 3.13 µg/mL | MIC [10]: 25 µg/mL | MIC (Salmonella typhosa T-63): 1.56 µg/mL | MIC [11]: 0.39 µg/mL | MIC [12]: 6.25 µg/mL | MIC (Staphylococcus aureus): < 0.2 µg/mL | MIC [13]: < 0.2 µg/mL | MIC [14]: 3.13 µg/mL | MIC (Sarcina lutea PCI 1001): 6.25 µg/mL | MIC ([15]; TI13, Pseudomonas aeruginosa TI-13, 37° C., 18 hours): 12.5 µg/mL | MIC (Proteus vulgaris OX 19; Proteus vulgaris, OX19, 18 h): 1.56 µg/mL | MIC [16]: 3.13 µg/mL | MIC [17]: 3.13 µg/mL | MIC (Shigella sonnei JS 11746): 3.13 µg/mL | MIC [18]: 3.13 µg/mL | MIC [19]: 3.13 µg/mL | MIC (Bacillus anthracis): < 0.2 µg/mL | MIC [20]: 0.78 µg/mL | MIC [21]: 6.25 µg/mL | MIC [22]: < 0.2 µg/mL | MIC (Escherichia coli W677; Escherichia coli, W677, 18 h): 1.56 µg/mL | MIC ([24]; ENTERITIDIS, 18 h): 3.13 µg/mL | MIC (Escherichia coli K-12; Escherichia coli, K12, 18 h): 1.56 µg/mL | MIC (Escherichia coli NIHJ; Escherichia coli, 18 h): 1.56 µg/mL | MIC ([25]; Bacillus cereus, ATCC10702, 18 h): 3.13 µg/mL | MIC [26]: 12.5 µg/mL
